# Experimental data published in patent publication US9604998B2, “Inhibitors of the renal outer medullary potassium channel” (MERCK SHARP & DOHME CORP., priority 2013, dated 2017).
# Key:
# Kir1.1 (ROMK1) = Kir1.1 (ROMK1) (Homo sapiens (Human), UniProt P48048); test: Electrophysiology Assay (whole cell voltage clamp, IonWorks Quattro); format: cell-based; settings: Chinese hamster ovary cells stably expressing Kir1.1; block during voltage step to 0 mV; read-out: Electrophysiology IC50
# Procedure: Chinese hamster ovary cells stably expressing Kir1.1 channels were maintained in T-75 flasks in cell culture media in a humidified 10% CO2 incubator at 37° C. Prior to an experiment, Kir1.1 expression was induced by overnight incubation with 1 mM sodium butyrate. […] After centrifugation, the cell pellet was resuspended in approximately 4.0 mL of bath solution and placed in the IonWorks instrument. The intracellular solution consisted of (in mM): 80 K gluconate, 40 KCl, 20 KF, 3.2 MgCl2, 3 EGTA, 5 Hepes, pH 7.4. Electrical access to the cytoplasm was achieved by perforation in 0.13 mg/mL amphotericin B for 4 min. […] Voltage protocols and current recordings were performed using the IonWorks HT software/hardware system. Currents were sampled at 1 kHz. No correction for liquid junction potentials was used. The test pulse, consisting of a 100 ms step to 0 mV from a holding potential of −70 mV, followed by a 100 ms voltage ramp from −70 mV to +70 mV, was applied before and after a 6 min compound incubation period. Test compounds were prepared by diluting DMSO stock solutions into the bath solution at 3× the final concentration and placed in the instrument in 96-well polypropylene plates. Current amplitudes were measured using the IonWorks software.
# hROMK (hKir1.1) = hROMK (hKir1.1) (Homo sapiens (Human), UniProt P48048); test: Thallium Flux Assay (ROMK channel functional thallium flux, FLIPR-Tetra); format: cell-based; settings: HEK293 cells stably expressing hROMK (hKir1.1); read-out: Thallium Flux IC50
# Chain of hROMK (hKir1.1) (P48048 whole entry): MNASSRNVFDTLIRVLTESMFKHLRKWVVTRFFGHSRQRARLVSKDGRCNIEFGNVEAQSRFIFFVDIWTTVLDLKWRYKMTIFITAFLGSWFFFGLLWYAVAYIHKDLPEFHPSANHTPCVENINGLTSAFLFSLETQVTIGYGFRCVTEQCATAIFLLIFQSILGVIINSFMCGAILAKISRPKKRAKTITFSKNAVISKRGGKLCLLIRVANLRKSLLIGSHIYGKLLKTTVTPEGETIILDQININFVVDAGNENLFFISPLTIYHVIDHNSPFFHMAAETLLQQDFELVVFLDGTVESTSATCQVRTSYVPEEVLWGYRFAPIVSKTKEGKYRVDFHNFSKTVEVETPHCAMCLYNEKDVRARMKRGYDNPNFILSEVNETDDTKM
# Procedure: HEK293 cells stably expressing hROMK (hKir1.1) were grown at 37° C. in a 10% CO2 humidified incubator in complete growth media: Dulbecco's Modified Eagle Medium supplemented with non-essential amino acids, Penicillin/Streptomycin/Glutamine, G418 and FBS. At >80% confluency, aspirate the media from the flask and rinse with 10 mL Calcium/Magnesium-free PBS. […] To dislodge the cell, gently bang the side of the flask with your hand. Triturate the cells completely and then transfer the cells to 25 mL complete media. Centrifuge at 1,500 rpm for 6 min followed by resuspension in complete growth media and determine cell concentration.
# Compound Buffer (per microplate): 20 mL Probenecid/Assay Buffer; 0.3 mM ouabain (10 mM ouabain in water can be stored in amber bottle/aluminum foil at room temperature); Test compound
# Stimulant Buffer (prepared at 5× final concentration in 1× FluxOR™ Chloride-Free Buffer): 7.5 mM Thallium sulfate and […] (to give a final assay concentration of 3 mM Thallium/0.3 mM Potassium). Store at 4° C. when not in use. If kept sterile, this solution is good for months.
# The ROMK channel functional thallium flux assay is performed in 384 wells, using the FLIPR-Tetra instrument. HEK-hKir1.1 cells are seeded in Poly-D-Lysine microplates and kept in a 37° C.-10% CO2 incubator overnight. On the day of the experiment, the growth media is replaced with the FluxOR™ reagent loading buffer and incubated, protected from light, at ambient temperature (23-25° C.) for 90 min. The loading buffer is replaced with assay buffer±test compound followed by 30 min incubation at ambient temperature, where the Thallium/Potassium stimulant is added to the microplate.
# 1. Seed HEK-hKir1.1 cells (50 μl at 20,000 cells/well) in 384-well PDL coated Microplates
# 2. Allow cells to adhere overnight in humidified 37° C./10% CO2 incubator
# 3. Completely remove cell growth media from microplate and replace with 25 μl loading buffer
# 4. Incubate Microplate at room temperature, protected form light, for 90 min
# 5. Remove loading buffer and replace with 25 μl 1× Assay Buffer±test compound.
# 6. Incubate microplate at room temperature, protected from light, for 30 min
# 7. […] Excitation=400 nm, Emission=460 & 580 nm. Collect data for ˜10 min.
# The fluorescence intensity of wells containing 3 μM of a standard control ROMK inhibitor of the present invention is used to define the ROMK-sensitive component of thallium flux. Fluorescence in the presence of test compounds is normalized to control values to provide % fluorescence change.
# Chain of Kir1.1 (ROMK1) (P48048 whole entry, species assumed): as the sequence (P48048 whole entry) above
Structure (SMILES),IC50 (Kir1.1 (ROMK1)),IC50 (hROMK (hKir1.1))
"Cc1c([C@@H]2CN3CCN(CC(O)c4cc(F)c(C#N)c(F)c4)C[C@H]3CO2)ccc2c1COC2=O (stereo partly drawn) [Example 38, (3R,9aS)-8-[2-(4-cyano-3,5-difluorophenyl)-2-hydroxyethyl]-3-(4-methyl-1-oxo-1,3-dihydro-2-benzofuran-5-yl)octahydropyrazino[2,1-c][1,4]oxazin-5-ium chloride]",120 nM,440 nM
"COc1cc(C(O)CN2CCN3C[C@@H](c4ccc5c(c4C)COC5=O)OC[C@@H]3C2)cc(F)c1C#N (stereo partly drawn) [Example 48, (3R,9aS)-8-[2-(4-cyano-3-fluoro-5-methoxyphenyl)-2-hydroxyethyl]-3-(4-methyl-1-oxo-1,3-dihydro-2-benzofuran-5-yl)octahydropyrazino[2,1-c][1,4]oxazin-5-ium chloride]",210 nM,220 nM
"Cc1c([C@@H](O)CN2CCN3C[C@@H](c4cc(F)c(C#N)c(F)c4)OC[C@@H]3C2)ccc2c1COC2=O [Example 52, (3R,9aS)-3-(4-cyano-3,5-difluorophenyl)-8-[(2R)-2-hydroxy-2-(4-methyl-1-oxo-1,3-dihydro-2-benzofuran-5-yl)ethyl]octahydropyrazino[2,1-c][1,4]oxazin-8-ium chloride]",100 nM,410 nM
"COc1cc([C@H]2CN3CCN(C[C@H](O)c4ccc5c(c4C)COC5=O)C[C@@H]3CO2)cc(F)c1C#N [Example 53, (3S,9aR)-3-(4-cyano-3-fluoro-5-methoxyphenyl)-8-[(2R)-2-hydroxy-2-(4-methyl-1-oxo-1,3-dihydro-2-benzofuran-5-yl)ethyl]octahydropyrazino[2,1-c][1,4]oxazin-8-ium chloride]",80 nM,240 nM
"Cc1c([C@@H](O)CN2CCN3C[C@H](c4ccc5c(c4C)COC5=O)SC[C@@H]3C2)ccc2c1COC2=O [Example 55, 5-{(3S,9aS)-8-[(2R)-2-hydroxy-2-(4-methyl-1-oxo-1,3-dihydro-2-bcnzofuran-5-yl)ethyl]octahydropyrazino[2,1-c][1,4]thiazin-3-yl}-4-methyl-2-benzofuran-1(3H)-one]",90 nM,330 nM
"COc1cc(CCN2CCN3C[C@@H](c4ccc5c(c4C)COC5=O)OC[C@@H]3C2)ccc1C#N [Example 56, 2-methoxy-4-(2-((3R,9aS)-3-(4-methyl-1-oxo-1,3-dihydroisobenzofuran-5-yl)hexahydropyrazino[2,1-c][1,4]oxazin-8(1H)-yl)ethyl)benzonitrile]",70 nM,40 nM
"Cc1c(CCN2CCN3C[C@@H](c4ccc5c(c4C)COC5=O)OC[C@@H]3C2)ccc2c1COC2=O [Example 57, 4-Methyl-5-((3R,9aS)-8-(2-(4-methyl-1-oxo-1,3-dihydroisobenzofuran-5-yl)ethyl)octahydropyrazino[2,1-c][1,4]oxazin-3-yl)isobenzofuran-1(3H)-one]",90 nM,30 nM
COc1cc(CCN2CCN3C[C@H](c4ccc5c(c4C)COC5=O)OC[C@H]3C2)ccc1C#N [Example 61],120 nM,330 nM
O=C1OCc2cc(CCN3CCN4C[C@H](c5ccc6c(c5)COC6=O)OC[C@@H]4C3)ccc21 [Example 63],40 nM,230 nM
Cc1c([C@@H]2CN3CCN(CCc4ccc5c(c4)COC5=O)C[C@H]3CO2)ccc2c1COC2=O [Example 64],40 nM,40 nM
Cc1c([C@H]2CN3CCN(CCc4ccc5c(c4)COC5=O)C[C@H]3CO2)ccc2c1COC2=O [Example 65],110 nM,170 nM
Cc1c([C@H]2CN3CCN(CC(C)c4ccc5c(c4)COC5=O)C[C@H]3CO2)ccc2c1COC2=O (stereo partly shown) [Example 66],140 nM,170 nM
Cc1c(CCN2CCN3C[C@@H](c4ccc5c(c4)COC5=O)OC[C@@H]3C2)ccc2c1COC2=O [Example 69],20 nM,60 nM
Cc1c(CCN2CCN3C[C@H](c4ccc5c(c4)COC5=O)OC[C@@H]3C2)ccc2c1COC2=O [Example 70],30 nM,120 nM
COc1cc([C@@H]2CN3CCN(CCc4ccc5c(c4C)COC5=O)C[C@H]3CO2)ccc1C#N [Example 71],200 nM,110 nM
Cc1c(CCN2CCN3C[C@@H](c4ccc(F)c(C#N)c4)OC[C@@H]3C2)ccc2c1COC2=O [Example 72],160 nM,150 nM

Structure (SMILES),IC50 (Kir1.1 (ROMK1)),IC50 (hROMK (hKir1.1))
Cc1c(CCN2CCN3C[C@@H](c4ccc5c(c4)CCOC5=O)OC[C@@H]3C2)ccc2c1COC2=O [Example 73],300 nM,570 nM
COc1cc([C@H]2CN3CCN(CCc4ccc5c(c4C)COC5=O)C[C@@H]3CO2)ccc1C#N [Example 75],70 nM,110 nM
COc1cc([C@@H]2CN3CCN(CCc4ccc5c(c4C)COC5=O)C[C@@H]3CO2)ccc1C#N [Example 76],90 nM,440 nM
Cc1c([C@H]2CN3CCN(CCc4ccc5c(c4C)COC5=O)C[C@H]3CO2)ccc(F)c1C#N [Example 79],70 nM,270 nM
Cc1c([C@@H]2CN3CCN(CCc4ccc5c(c4C)COC5=O)C[C@H]3CO2)ccc(F)c1C#N [Example 80],50 nM,60 nM
Cc1c([C@@H]2CN3CCN(CCc4ccc5c(c4)CC(C)OC5=O)C[C@H]3CO2)ccc2c1COC2=O (stereo partly shown) [Example 81],120 nM,90 nM
COc1c(C#N)ccc(CCN2CCN3C[C@@H](c4ccc5c(c4C)COC5=O)OC[C@@H]3C2)c1C [Example 82],80 nM,60 nM
CCOc1cc(CCN2CCN3C[C@@H](c4ccc5c(c4C)COC5=O)OC[C@@H]3C2)ccc1C#N [Example 83],90 nM,120 nM
Cc1c([C@@H]2CN3CCN(CCc4ccc5c(c4)C[C@H](C)OC5=O)C[C@H]3CO2)ccc2c1COC2=O [Example 86],80 nM,80 nM
Cc1c([C@@H]2CN3CCN(CCc4ccc5c(c4)C[C@@H](C)OC5=O)C[C@H]3CO2)ccc2c1COC2=O [Example 87],50 nM,110 nM
Cc1c([C@@H]2CN3CCN(CCc4ccc5c(c4)C[C@H](C)OC5=O)C[C@H]3CO2)ccc(F)c1C#N [Example 88],50 nM,190 nM
Cc1c(CCN2CCN3C[C@H](c4ccc5c(c4Cl)COC5=O)OC[C@@H]3C2)ccc2c1COC2=O [Example 89],100 nM,200 nM
Cc1c(C(C)CN2CCN3C[C@@H](c4ccc5c(c4C)COC5=O)OC[C@@H]3C2)ccc2c1COC2=O (stereo partly shown) [Example 90],230 nM,110 nM
Cc1c([C@@H]2CN3CCN(CCc4ccc5c(c4Br)COC5=O)C[C@H]3CO2)ccc2c1COC2=O [Example 91],210 nM,90 nM
Cc1c([C@@H]2CN3CCN(CCc4ccc(-n5cnnn5)nc4)C[C@H]3CO2)ccc(F)c1C#N [Example 92],80 nM,270 nM
Cc1c([C@H]2CN3CCN(CCc4ccc(-n5cnnn5)nc4)C[C@H]3CO2)ccc(F)c1C#N [Example 93],80 nM,80 nM
